Read-outs that look alike come from different tables or passages of the source.
Tested on: Phakopsora pachyrhizi
Experiment: Asian soybean rust (PHAKPA) disease control on soybean seedlings
Type: in vivo
Details: High volume application at 25 ppm; for pest or weed control at 25 ppm: Phakopsora pachyrhizi
Experimental: Example C: Evaluation of Fungicidal Activity: Asian Soybean Rust (Phakopsora pachyrhizi; Bayer Code […]) Technical grades of materials were dissolved in acetone, which were then mixed with nine volumes of water containing 0.011% Tween 20. The fungicide solutions were applied onto soybean seedlings using an automated booth sprayer to run-off. All sprayed plants were allowed to air dry prior to further handling. Soybean plants (variety Williams 82) were grown in soil-less Metro mix, with one plant per pot. Two week old seedlings were used for testing. Plants were inoculated either 3 days prior to or 1 day after fungicide treatments. Plants were incubated for 24 h in a dark dew room at 22° C. and 100% relative humidity then transferred to a growth room at 23° C. for disease to develop. Disease severity was assessed on the sprayed leaves.

[1] = 24 h, 1 day protectant, read-out: PHAKPA 1DP (1 Day Protectant) disease control
[2] = 72 h, 3 day curative, read-out: PHAKPA 3DC (3 Day Curative) disease control

Work on `COc1ccc([C@H](C)[C@H](C)OC(=O)[C@@H](NC(=O)c2nccc(OC)c2OC(C)=O)C(C)C)c(C)c1` [Example 188] yielded a pest or weed control at 25 ppm [1] of over 80% and a pest or weed control at 25 ppm [2] of under 80%.

`COc1ccnc(C(=O)N[C@@H](C)C(=O)O[C@@H](C)[C@@H](C)c2ccccc2C)c1OC(=O)C1CC1` [Example 281] was tested, and the pest or weed control at 25 ppm [1] was over 80% and the pest or weed control at 25 ppm [2] was over 80%.

For `COc1ccnc(C(=O)N[C@@H](C)C(=O)O[C@@H](C)[C@H](C)c2ccccc2C)c1OC(=O)C(C)C` [Example 228], the “PHAKPA 1DP (1 Day Protectant) disease control” value (“PHAKPA 1DP” below) (1 day protectant) was “D (≤0)” and the “PHAKPA 3DC (3 Day Curative) disease control” value (“PHAKPA 3DC” below) (3 day curative) was “D (≤0)”.

With `CCCCC(=O)Oc1c(OC)ccnc1C(=O)N[C@@H](C)C(=O)O[C@@H](C)[C@@H](C)c1ccccc1C` [Example 280] the pest or weed control at 25 ppm [1] was over 80% and the pest or weed control at 25 ppm [2] was over 80%.

Compound `COc1ccnc(C(=O)N[C@H](C(=O)O[C@@H](C)[C@H](C)c2ccc(F)cc2C)C(C)C)c1OC(C)=O` [Example 185] has a pest or weed control at 25 ppm [1] of under 0% and a pest or weed control at 25 ppm [2] of under 0%.

With `COc1ccnc(C(=O)N[C@H](C(=O)O[C@H](C)[C@@H](C)c2ccc(F)cc2C)C(C)C)c1OC(C)=O` [Example 190] the pest or weed control at 25 ppm [1] was under 0% and the pest or weed control at 25 ppm [2] was under 0%.

Work on `COc1ccnc(C(=O)N[C@@H](C)C(=O)O[C@H](C)[C@H](C)c2ccc(F)cc2)c1OC(=O)C(C)C` [Example 226] yielded a pest or weed control at 25 ppm [1] of under 0% and a pest or weed control at 25 ppm [2] of under 80%.

With `CCCC(=O)Oc1c(OC)ccnc1C(=O)N[C@@H](C)C(=O)O[C@@H](C)[C@@H](C)c1ccccc1C` [Example 279] the pest or weed control at 25 ppm [1] was over 80% and the pest or weed control at 25 ppm [2] was over 80%.

With `COc1ccnc(C(=O)N[C@H](C(=O)O[C@@H](C)[C@@H](C)c2ccc(F)cc2C)C(C)C)c1OC(=O)C(C)C` [Example 207] the “PHAKPA 1DP” value (1 day protectant) was “B (≤80)” and the “PHAKPA 3DC” value (3 day curative) was “D (≤0)”.

For `COc1ccnc(C(=O)N[C@H](C(=O)O[C@@H](C)[C@H](C)c2ccccc2C)C(C)C)c1OC(=O)C(C)C` [Example 211], the pest or weed control at 25 ppm [1] was under 80% and the pest or weed control at 25 ppm [2] was under 0%.

For `CCC(=O)Oc1c(OC)ccnc1C(=O)N[C@@H](C)C(=O)O[C@@H](C)[C@@H](C)c1ccccc1C` [Example 278], the pest or weed control at 25 ppm [1] was over 80% and the pest or weed control at 25 ppm [2] was over 80%.

`COc1ccc([C@@H](C)[C@@H](C)OC(=O)[C@H](C)NC(=O)c2nccc(OC)c2OC(C)=O)c(C)c1` [Example 183] showed a pest or weed control at 25 ppm [1] of over 80% and a pest or weed control at 25 ppm [2] of under 80%.

In the case of `COc1ccnc(C(=O)N[C@H](C(=O)O[C@H](C)[C@H](C)c2ccc(F)cc2)C(C)C)c1OC(=O)C(C)C` [Example 216], the pest or weed control at 25 ppm [1] is reported as under 80% and the pest or weed control at 25 ppm [2] is reported as under 0%.

With `COc1ccc([C@H](C)[C@H](C)OC(=O)[C@@H](NC(=O)c2nccc(OC)c2OC(=O)C(C)C)C(C)C)c(C)c1` [Example 213] the pest or weed control at 25 ppm [1] was over 80% and the pest or weed control at 25 ppm [2] was under 80%.

`COc1ccnc(C(=O)N[C@@H](C)C(=O)O[C@H](C)[C@H](C)c2ccc(F)cc2)c1OC(C)=O` [Example 182] was tested, and the pest or weed control at 25 ppm [1] was under 80% and the pest or weed control at 25 ppm [2] was under 80%.

In the case of `COc1ccnc(C(=O)NCC(=O)O[C@@H](C)[C@H](C)c2ccccc2C)c1OC(=O)C(C)C` [Example 198], the pest or weed control at 25 ppm [1] is reported as under 0% and the pest or weed control at 25 ppm [2] is reported as under 0%.

`COc1ccc([C@@H](C)[C@@H](C)OC(=O)[C@H](C)NC(=O)c2nccc(OC)c2OC(=O)C(C)C)c(C)c1` [Example 227] showed a pest or weed control at 25 ppm [1] of under 80% and a pest or weed control at 25 ppm [2] of under 0%.

In the case of `COc1ccnc(C(=O)NCC(=O)O[C@@H](C)[C@@H](C)c2ccc(F)cc2C)c1OC(=O)C(C)C` [Example 221], the “PHAKPA 1DP” value (1 day protectant) is reported as “D (≤0)” and the “PHAKPA 3DC” value (3 day curative) is reported as “D (≤0)”.

For `COc1ccnc(C(=O)N[C@H](C(=O)O[C@@H](C)[C@@H](C)c2ccc(F)cc2C)C(C)C)c1OC(C)=O` [Example 184], the pest or weed control at 25 ppm [1] was over 80% and the pest or weed control at 25 ppm [2] was over 80%.

Work on `COc1ccnc(C(=O)N[C@H](C)C(=O)O[C@H](C)[C@H](C)c2ccc(F)cc2C)c1OC(=O)C(C)C` [Example 219] yielded a pest or weed control at 25 ppm [1] of under 0% and a pest or weed control at 25 ppm [2] of under 0%.

`COc1ccnc(C(=O)N[C@@H](C)C(=O)O[C@@H](C)[C@@H](C)c2ccccc2C)c1OC(=O)c1ccccc1` [Example 282] showed a pest or weed control at 25 ppm [1] of over 80% and a pest or weed control at 25 ppm [2] of over 80%.

`COc1ccc([C@H](C)[C@H](C)OC(=O)[C@H](C)NC(=O)c2nccc(OC)c2OC(=O)C(C)C)c(C)c1` [Example 204] was tested, and the “PHAKPA 1DP” value (1 day protectant) was “A (>80)” and the “PHAKPA 3DC” value (3 day curative) was “A (>80)”.

Work on `COc1ccnc(C(=O)N[C@H](C)C(=O)O[C@@H](C)[C@H](C)c2ccc(F)cc2C)c1OC(=O)C(C)C` [Example 218] yielded a pest or weed control at 25 ppm [1] of under 0% and a pest or weed control at 25 ppm [2] of under 80%.

`COc1ccnc(C(=O)N[C@@H](C)C(=O)O[C@@H](C)[C@@H](C)c2ccccc2C)c1OCOC(=O)C(C)C` [Example 284] was tested, and the pest or weed control at 25 ppm [1] was over 80% and the pest or weed control at 25 ppm [2] was over 80%.

With `COc1ccnc2c(=O)n([C@@H](C)C(=O)O[C@@H](C)[C@@H](C)c3ccccc3C)c(=O)oc12` [Example 285] the pest or weed control at 25 ppm [1] was over 80% and the pest or weed control at 25 ppm [2] was over 80%.

For `COc1ccnc(C(=O)N[C@H](C(=O)O[C@H](C)[C@@H](C)c2ccccc2C)C(C)C)c1OC(=O)C(C)C` [Example 215], the pest or weed control at 25 ppm [1] was under 80% and the pest or weed control at 25 ppm [2] was under 80%.

Work on `COc1ccnc(C(=O)N[C@H](C(=O)O[C@H](C)[C@H](C)c2ccc(F)cc2C)C(C)C)c1OC(=O)C(C)C` [Example 214] yielded a pest or weed control at 25 ppm [1] of under 80% and a pest or weed control at 25 ppm [2] of under 80%.

Compound `COc1ccnc(C(=O)NCC(=O)O[C@@H](C)[C@@H](C)c2ccc(F)cc2)c1OC(=O)C(C)C` [Example 199] has a pest or weed control at 25 ppm [1] of under 0% and a pest or weed control at 25 ppm [2] of under 0%.

`COc1ccnc(C(=O)N[C@H](C(=O)O[C@@H](C)[C@@H](C)c2ccc(F)cc2C)C(C)C)c1OC(=O)C(C)C` [Example 206] was tested, and the “PHAKPA 1DP” value (1 day protectant) was “B (≤80)” and the “PHAKPA 3DC” value (3 day curative) was “D (≤0)”.

In the case of `COc1ccnc(C(=O)N[C@@H](C)C(=O)O[C@@H](C)[C@@H](C)c2ccc(F)cc2)c1OC(=O)C(C)C` [Example 229], the “PHAKPA 1DP” value (1 day protectant) is reported as “D (≤0)” and the “PHAKPA 3DC” value (3 day curative) is reported as “D (≤0)”.

For `COc1ccnc(C(=O)N[C@H](C(=O)O[C@@H](C)[C@@H](C)c2ccc(F)cc2)C(C)C)c1OC(C)=O` [Example 187], the pest or weed control at 25 ppm [1] was over 80% and the pest or weed control at 25 ppm [2] was under 0%.

`COc1ccnc(C(=O)N[C@H](C(=O)O[C@H](C)[C@H](C)c2ccc(F)cc2)C(C)C)c1OC(C)=O` [Example 192] gave a pest or weed control at 25 ppm [1] of under 80% and a pest or weed control at 25 ppm [2] of under 0%.

In the case of `COc1ccnc(C(=O)N[C@@H](C)C(=O)O[C@H](C)[C@@H](C)c2ccc(F)cc2C)c1OC(C)=O` [Example 181], the pest or weed control at 25 ppm [1] is reported as under 80% and the pest or weed control at 25 ppm [2] is reported as under 0%.

`COc1ccc([C@@H](C)[C@@H](C)OC(=O)[C@H](C)NC(=O)c2nccc(OC)c2OC(C)=O)c(C)c1` [Example 220] was tested, and the “PHAKPA 1DP” value (1 day protectant) was “B (≤80)” and the “PHAKPA 3DC” value (3 day curative) was “B (≤80)”.

For `COc1ccc([C@H](C)[C@H](C)OC(=O)CNC(=O)c2nccc(OC)c2OC(=O)C(C)C)c(C)c1` [Example 224], the “PHAKPA 1DP” value (1 day protectant) was “B (≤80)” and the “PHAKPA 3DC” value (3 day curative) was “D (≤0)”.

Work on `COc1ccnc(C(=O)NCC(=O)O[C@@H](C)[C@H](C)c2ccc(F)cc2C)c1OC(=O)C(C)C` [Example 197] yielded a pest or weed control at 25 ppm [1] of under 0% and a pest or weed control at 25 ppm [2] of under 0%.

Compound `COc1ccnc(C(=O)N[C@H](C)C(=O)O[C@H](C)[C@H](C)c2ccc(F)cc2C)c1OC(C)=O` [Example 195] has a pest or weed control at 25 ppm [1] of under 80% and a pest or weed control at 25 ppm [2] of under 0%.

In the case of `COc1ccnc(C(=O)NCC(=O)O[C@@H](C)[C@@H](C)c2ccc(F)cc2C)c1OC(=O)C(C)C` [Example 196], the “PHAKPA 1DP” value (1 day protectant) is reported as “A (>80)” and the “PHAKPA 3DC” value (3 day curative) is reported as “B (≤80)”.

For `COc1ccc([C@H](C)[C@H](C)OC(=O)[C@H](C)NC(=O)c2nccc(OC)c2OC(=O)C(C)C)c(C)c1` [Example 230], the “PHAKPA 1DP” value (1 day protectant) was “D (≤0)” and the “PHAKPA 3DC” value (3 day curative) was “D (≤0)”.

`COc1ccnc(C(=O)N[C@@H](C)C(=O)O[C@@H](C)[C@H](C)c2ccccc2C)c1OC(=O)C(C)C` [Example 202] was tested, and the “PHAKPA 1DP” value (1 day protectant) was “B (≤80)” and the pest or weed control at 25 ppm [2] was under 0%.

With `COc1ccnc(C(=O)N[C@@H](C)C(=O)O[C@@H](C)[C@@H](C)c2ccc(F)cc2)c1OC(=O)C(C)C` [Example 203] the “PHAKPA 1DP” value (1 day protectant) was “A (>80)” and the “PHAKPA 3DC” value (3 day curative) was “B (≤80)”.

`COc1ccnc(C(=O)N[C@@H](C)C(=O)O[C@@H](C)[C@H](C)c2ccc(F)cc2C)c1OC(=O)C(C)C` [Example 201] gave a pest or weed control at 25 ppm [1] of under 80% and a pest or weed control at 25 ppm [2] of under 80%.

In the case of `COc1ccc([C@@H](C)[C@@H](C)OC(=O)[C@@H](NC(=O)c2nccc(OC)c2OC(=O)C(C)C)C(C)C)c(C)c1` [Example 217], the pest or weed control at 25 ppm [1] is reported as under 80% and the pest or weed control at 25 ppm [2] is reported as under 0%.

In the case of `COc1ccnc(C(=O)N[C@H](C(=O)O[C@@H](C)[C@@H](C)c2ccc(F)cc2C)C(C)C)c1OC(=O)C(C)C` [Example 209], the “PHAKPA 1DP” value (1 day protectant) is reported as “A (>80)” and the “PHAKPA 3DC” value (3 day curative) is reported as “A (>80)”.

`COc1ccnc(C(=O)N[C@H](C(=O)O[C@@H](C)[C@@H](C)c2ccc(F)cc2)C(C)C)c1OC(=O)C(C)C` [Example 212] gave a pest or weed control at 25 ppm [1] of under 80% and a pest or weed control at 25 ppm [2] of under 80%.

Compound `COc1ccnc(C(=O)N[C@H](C(=O)O[C@H](C)[C@H](C)c2ccc(F)cc2C)C(C)C)c1OC(C)=O` [Example 189] has a pest or weed control at 25 ppm [1] of over 80% and a pest or weed control at 25 ppm [2] of under 80%.

— patent US20200399222A1, “PICOLINAMIDES AS FUNGICIDES” (Dow AgroSciences LLC, priority 2018, published 2020)
